Test results reported in US20030144360A1, “Composition and method for modulating BAR/FXR receptor activity” (Allergan Sales, Inc., priority 2001, published 2003).

Assays:
GAL-L-hRXRa = target: T1, GAL-L-hRXRa (Homo sapiens, UniProt P19793); experiment: Co-transfection luciferase assay, MH100 × 4 reporter, GAL-L-hRXRa alone; settings: 50 μM CDCA
T1 sequence (P19793 203-462): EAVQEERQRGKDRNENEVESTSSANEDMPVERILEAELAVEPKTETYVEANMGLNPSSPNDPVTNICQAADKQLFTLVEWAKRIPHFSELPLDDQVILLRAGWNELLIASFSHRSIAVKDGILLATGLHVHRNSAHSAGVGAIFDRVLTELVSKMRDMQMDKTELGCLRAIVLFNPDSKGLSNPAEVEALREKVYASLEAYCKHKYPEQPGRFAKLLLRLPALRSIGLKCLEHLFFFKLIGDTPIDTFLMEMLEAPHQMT
Protocol: CV-1 African Green Monkey cells were grown in Dulbecco's Modified Eagle's medium supplemented with 10% resin-charcoal stripped fetal bovine serum (FBS), 50 U/ml penicillin G and 50 μg/ml streptomycin sulfate (DMEM-FBS) at 37° C. in 5% CO2. One day prior to transfection, cells were plated to 50-80% confluence using phenol red-free DMEM-FBS. Cells were transiently transfected by lipofection as described in Forman et al., 81 Cell 687 (1995). Liposomes (N-[1-(2,3-dioleoyloxy)propyl]-N,N,N-ammonium methyl sulfate, sold by Boehringer Mannheim under the name DOTAP) were formed according to the manufacturer's instructions. The liposomes contained reporter gene constructs (300 ng/10^5 cells); cytomegalovirus driven expression vectors (25 ng/10^5 cells) were added as indicated along with CMX-Bgal (500 ng/10^5 cells) as an internal control. After 2 hours the liposomes were removed and replaced with fresh media. Cells were incubated for approximately 40 hours with phenol red-free DMEM-FBS containing the indicated compounds. After exposure to the specified ligand, the cells were harvested.
The harvested cells were assayed for the presence of luciferase activity. Cells were lysed in 0.1 M KPO4 (pH 7.8), 1.0% TRITON® X-100, 1.0 mM dithiolthreitol (DTT) and 2 mM ethylenediamine tetracetic acid (EDTA). Luciferase activity was measured by reaction of the cell lysates with luciferin in a reaction buffer comprising: 20 mM tricine, 1.07 mM Mg(CO3)4-Mg(OH)2-5H2O, 2.67 mM MgSO4.7H2O, 0.1 mM EDTA, 0.5 mM Sodium luciferin, 0.15 mg/ml Coenzyme A, 5 mM DTT, and 0.5 mM adenosine triphosphate (ATP). Resulting chemiluminescence was measured in a luminometer. […] All points were assayed in triplicate and varied by less than 15%. Each experiment was repeated three or more times with similar results.
As shown below, in most cases hRXRop was recombinantly coexpressed with one other of the indicated receptor constructs, so as to permit the formation of hetero-or homodimers containing hRXRop.
Expression of the luciferase reporter gene product was detected and quantified as described above.

BAR-RXRα complex = target: T2, BAR-RXRα complex (UniProt P19793+Q62735); settings: cited from earlier work
T2 sequence (Q62735 1-469): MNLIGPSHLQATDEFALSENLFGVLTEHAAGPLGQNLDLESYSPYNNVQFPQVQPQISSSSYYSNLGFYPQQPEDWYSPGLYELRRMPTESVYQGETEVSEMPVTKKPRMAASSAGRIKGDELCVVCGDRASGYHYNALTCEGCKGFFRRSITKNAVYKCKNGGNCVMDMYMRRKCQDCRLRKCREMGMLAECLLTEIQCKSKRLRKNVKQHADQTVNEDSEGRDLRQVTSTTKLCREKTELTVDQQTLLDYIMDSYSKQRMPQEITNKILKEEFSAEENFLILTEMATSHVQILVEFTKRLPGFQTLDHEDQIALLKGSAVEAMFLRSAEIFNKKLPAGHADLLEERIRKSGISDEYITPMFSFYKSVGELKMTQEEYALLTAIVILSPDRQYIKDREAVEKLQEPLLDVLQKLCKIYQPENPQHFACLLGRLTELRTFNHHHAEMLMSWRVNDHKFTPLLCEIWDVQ
T2 sequence (P19793 1-462): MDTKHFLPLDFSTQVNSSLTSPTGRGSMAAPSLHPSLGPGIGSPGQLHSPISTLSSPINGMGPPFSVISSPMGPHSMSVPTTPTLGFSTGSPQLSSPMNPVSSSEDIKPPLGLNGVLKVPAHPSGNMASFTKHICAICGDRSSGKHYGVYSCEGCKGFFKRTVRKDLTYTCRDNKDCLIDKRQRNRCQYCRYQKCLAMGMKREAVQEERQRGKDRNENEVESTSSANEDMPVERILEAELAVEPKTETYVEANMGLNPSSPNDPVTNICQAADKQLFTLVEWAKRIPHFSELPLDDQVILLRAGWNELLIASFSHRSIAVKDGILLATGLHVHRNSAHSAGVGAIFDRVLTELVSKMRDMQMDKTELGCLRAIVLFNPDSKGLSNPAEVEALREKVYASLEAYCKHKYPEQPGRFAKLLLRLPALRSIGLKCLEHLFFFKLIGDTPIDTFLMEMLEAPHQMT

[1] = test system: other nuclear hormone receptors; settings: cited from earlier work
[2] = target: BAR/FXR:RXR heterodimer (CV-1 cells) (/ Homo sapiens, UniProt Q62735;P19793 SEQ:1-469,SEQ:1-462); experiment: cell_activity; CV-1, 100 uM CDCA; text gives IBABP IR-1 reporter, FIG. 1A legend gives EcREx6; settings: label: 32P (gel shift)

With `C[C@H](CCC(=O)O)[C@H]1CC[C@H]2[C@@H]3[C@H](O)C[C@@H]4C[C@H](O)CC[C@]4(C)[C@H]3CC[C@]12C` [CDCA, chenodeoxycholic acid, reference compound] the “Reporter Activity” value (GAL-L-hRXRa) was 0.38.

In the case of `COC(=O)/C=C(\C)CC/C=C(\C)CC[C@H]1OC1(C)C` [JH III, juvenile hormone III], the “activation of the BAR-RXR complex” value (BAR-RXRα complex) is listed as “activated”, the “activation of BAR/FXR or RXR alone” value (BAR-RXRα complex; either receptor alone) is listed as “does not activate” and the “activation of other nuclear hormone receptors” value [1] is listed as “failed to activate”.

For `CC(C)CCC[C@@H](C)[C@H]1CC[C@H]2[C@@H]3CC=C4C[C@@H](O)CC[C@]4(C)[C@H]3CC[C@]12C` [cholesterol], the “activation of the BAR-RXR complex” value (BAR-RXRα complex) is given as “did not activate”.

For `CC(C)=CCCC(C)=CCCC(C)=CC=O` [farnesal], the “activation of the BAR-RXR complex” value (BAR-RXRα complex) is listed as “somewhat less strongly”.

For `CC(C)=CCCC(C)=CCCC(C)=CC(=O)O` [farnesoic acid], the “activation of the BAR-RXR complex” value (BAR-RXRα complex) is listed as “somewhat less strongly”.

For `CC(C)=CCC/C(C)=C/CO` [geraniol], the “activation of the BAR-RXR complex” value (BAR-RXRα complex) is given as “did not activate”.

In the case of `CC(C)=CCC/C(C)=C/CC/C(C)=C/CC/C(C)=C/CO` [geranylgeraniol], the “activation of the BAR-RXR complex” value (BAR-RXRα complex) is given as “somewhat less strongly”.

For `CC(C)=CCC/C(C)=C/CC/C(C)=C/CC/C=C(\C)CC/C=C(\C)CCC=C(C)C` [squalene], the “activation of the BAR-RXR complex” value (BAR-RXRα complex) is listed as “did not activate”.

B1: IBABP IR-1 BAR/FXR response element (dsDNA)
DNA 1: CCTTAAGGTGAATAACCTTGGGGCTCC
DNA 2: GGAGCCCCAAGGTTATTCACCTTAAGG
In the case of B1, the activity [2] is reported as about 200 fold activation.
